The assay has as its target T1, human vasopressin V2 receptor subtype (Homo sapiens, UniProt P30518).
T1 construct: host or cells: CHO cells (pZeoSV vector)
In words: Vasopressin binding in Chinese Hamster Ovary cell membranes expressing human vasopressin V2 subtype receptors. To be noted: 100 nM, CHO cell membranes, [3H]arginine vasopressin, values without parentheses. The method in brief:
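Radioligand displacement on membranes from CHO cells stably expressing human V2 receptor, 25 to 50 μg protein/well, in 50 mM Tris-HCl pH 7.4 with MgCl2, BSA and protease inhibitors. [^3H]arginine vasopressin (8 nM working solution) incubated 60 min at room temperature; bound label measured by filtration and scintillation counting.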

This is an account of results in patent US7109193B2, “Tricyclic diazepines tocolytic oxytocin receptor antagonists” (Wyeth, priority 2001, dated 2006).

In general, inhibition refers to the relative decrease from the control value, in per cent.

T1 sequence (P30518 whole entry): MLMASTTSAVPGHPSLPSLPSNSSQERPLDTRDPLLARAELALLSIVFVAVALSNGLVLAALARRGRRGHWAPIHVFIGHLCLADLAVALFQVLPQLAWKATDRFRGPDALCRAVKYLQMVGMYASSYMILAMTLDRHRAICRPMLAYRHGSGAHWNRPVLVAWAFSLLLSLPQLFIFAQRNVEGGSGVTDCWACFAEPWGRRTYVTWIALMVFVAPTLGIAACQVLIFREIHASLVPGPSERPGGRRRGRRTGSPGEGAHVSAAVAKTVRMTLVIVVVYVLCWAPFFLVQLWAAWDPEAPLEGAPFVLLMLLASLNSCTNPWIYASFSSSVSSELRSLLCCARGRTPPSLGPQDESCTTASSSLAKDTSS

`Cc1ccccc1-c1ccc(C(=O)N2Cc3ccc(C(=O)N4CCN(CCN(C)C)CC4)n3Cc3ccccc32)cc1C` [Example 198, {4-[2-(Dimethylamino)ethyl]-1-piperazinyl}{10-[(2,2′-dimethyl[1,1′-biphenyl]-4-yl)carbonyl]-10,11-dihydro-5H-pyrrolo[2,1-c][1,4]benzodiazepin-3-yl}methanone]: the inhibition at 0.1 µM stood at 19%.

`COc1ccccc1-c1ccc(C(=O)N2Cc3ccc(C(=O)N4CCN(C(C)C)CC4)n3Cc3ccccc32)cc1C` [Example 232, (4-Isopropyl-1-piperazinyl){10-[(2′-methoxy-2-methyl[1,1′-biphenyl]-4-yl)carbonyl]-10,11-dihydro-5H-pyrrolo[2,1-c][1,4]benzodiazepin-3-yl}methanone]: the inhibition at 0.1 µM worked out at 4%.

As to `O=C(c1ccc2n1Cc1ccccc1N(C(=O)c1ccc(-c3cccc4ccccc34)cc1Cl)C2)N1CCN(CCN2CCOCC2)CC1` [Example 215, {10-[2-Chloro-4-(1-naphthyl)benzoyl]-10,11-dihydro-5H-pyrrolo[2,1-c][1,4]benzodiazepin-3-yl}{4-[2-(4-morpholinyl)ethyl]-1-piperazinyl}methanone], the inhibition at 0.1 µM was determined as 22%.

`C=CCN1CCN(C(=O)c2ccc3n2Cc2ccccc2N(C(=O)c2ccc(-c4cccc5ccccc45)cc2Cl)C3)CC1` [Example 229, (4-Allyl-1-piperazinyl){10-[2-chloro-4-(1-naphthyl)benzoyl]-10,11-dihydro-5H-pyrrolo[2,1-c][1,4]benzodiazepin-3-yl}methanone]: the inhibition at 0.1 µM was 27%.

Regarding `COc1cccc(-c2ccc(C(=O)N3Cc4ccc(C(=O)N(C)C5CCN(C)C5)n4Cc4ccccc43)cc2C)c1` (stereo not shown) [Example 186, 10-[(3′-Methoxy-2-methyl[1,1′-biphenyl]-4-yl)carbonyl]-N-methyl-N-(1-methyl-3-pyrrolidinyl)-10,11-dihydro-5H-pyrrolo[2,1-c][1,4]benzodiazepine-3-carboxamide], the inhibition at 0.1 µM came out at 8%.

As to `COc1cccc(-c2cc(OC)c(C(=O)N3Cc4ccc(C(=O)N5CCN(C(C)C)CC5)n4Cc4ccccc43)cc2Cl)c1` [Example 239, {10-[(6-Chloro-3,3′-dimethoxy[1,1′-biphenyl]-4-yl)carbonyl]-10,11-dihydro-5H-pyrrolo[2,1-c][1,4]benzodiazepin-3-yl}(4-isopropyl-1-piperazinyl)methanone], the inhibition at 0.1 µM amounted to 16%.

`COc1ccccc1-c1ccc(C(=O)N2Cc3ccc(C(=O)N(C)C4CCN(C)CC4)n3Cc3ccccc32)cc1` [Example 177, 10-[(2′-Methoxy[1,1′-biphenyl]-4-yl)carbonyl]-N-methyl-N-(1-methyl-4-piperidinyl)-10,11-dihydro-5H-pyrrolo[2,1-c][1,4]benzodiazepine-3-carboxamide]: the inhibition at 0.1 µM was 18%.

Take `COc1cc(C(=O)N2Cc3ccc(C(=O)NCCN4CCCCC4)n3Cc3ccccc32)ccc1-c1cccc2ccccc12` [Example 157, 10-[3-Methoxy-4-(1-naphthyl)benzoyl]-N-[2-(1-piperidinyl)ethyl]-10,11-dihydro-5H-pyrrolo[2,1-c][1,4]benzodiazepine-3-carboxamide]: the inhibition at 0.1 µM came to 23%.

Take `CN1CCCC1CCNC(=O)c1ccc2n1Cc1ccccc1N(C(=O)c1ccc(-c3cccc4ccccc34)cc1Cl)C2` (stereo not shown) [Example 173, 10-[2-Chloro-4-(1-naphthyl)benzoyl]-N-[2-(1-methyl-2-pyrrolidinyl)ethyl]-10,11-dihydro-5H-pyrrolo[2,1-c][1,4]benzodiazepine-3-carboxamide]: the inhibition at 0.1 µM came out at 17%.

For `O=C(NCCN1CCCCC1)c1ccc2n1Cc1ccccc1N(C(=O)c1ccc(-c3cccc4ccccc34)cc1Cl)C2` [Example 160, 10-[2-Chloro-4-(1-naphthyl)benzoyl]-N-[2-(1-piperidinyl)ethyl]-10,11-dihydro-5H-pyrrolo[2,1-c][1,4]benzodiazepine-3-carboxamide], the inhibition at 0.1 µM is 24%.
